Our source for the IC50 values is patent publication US9856259B2, “Heterocyclic compounds and uses thereof” (Plexxikon Inc., priority 2014, dated 2018).

For assay [1], the target named is T1, BRD4-BD12 (Homo sapiens, UniProt O60885).
T1 construct: dual bromodomains (BRD4-BD12 (1-477), BRD4-BD12 (1-472)); six-His tag (N); made in house; host or cells: E. coli BL21-CodonPlus (DE3)
The assay can be described thus: Alphascreen binding assay, BRD4(1 2) H4. Conditions: BRD4 dual bromodomains with acetylated Histone 4 peptide, read-out: Biochemical activity (IC50 μM) BRD4(1 2) H4. A digest of the protocol: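 N-His-tagged human BRD4 tandem bromodomains (1-477 or 1-472, E. coli-expressed) and biotinylated tetra-acetylated histone H4 1-21 peptide, preincubated 1 h at room temperature with compound in HEPES pH 7.5/NaCl/BSA/Triton/DTT. AlphaScreen nickel-chelate/streptavidin beads added (7.5 μg/mL), read after 30 min. pIC50 from four-parameter fit of control-normalized data.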
A general note: Alpha assays give light when donor and acceptor beads are brought close together.

For assay [2], the system named is MV-4-11. The assay can be described thus: Oncology cell growth assay, MV-4-11 3 d growth. Type of assay: cell-based. The conditions noted are these: Homo sapiens, MV4-11; MV-4-11 cells, 72 hours, CellTiter Glo; read-out: Cell activity (IC50 μM) MV-4-11 3 d-Growtb. An outline of the steps:
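MV-4-11 AML cells (MLL-AF4) seeded 3000/well, then exposed to 8-point 1:3 compound dilutions up to 10 μM final, 0.2% DMSO, for 72 h. Growth read by CellTiter Glo luminescence, normalised to DMSO controls; pIC50 from four-parameter fit.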

Assay [3] relates to cancer cell lines / MV-4-11 Myc reporter cell line. The assay is described as follows: Bromodomain cell assays of Example 8 (at least one of them). Conditions: Homo sapiens, MV4-11; at least one of the bromodomain cell assays described in Example 8. Type of assay: cell-based. A digest of the protocol:
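Antiproliferation: 3000 cells/well, 8-point 1:3 titration from 10 µM final, 0.2% DMSO, 72 h, CellTiter Glo luminescence. Myc reporter: MV-4-11 with E-box firefly luciferase, 25,000 cells, same titration, 24 h; One-Glo luminescence with CellTiter-Fluo viability; 10 µM JQ1 as low control. pIC50 from four-parameter fit.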

By IC50 is commonly meant the midpoint of a concentration-inhibition curve. As to `Cc1noc(C)c1-c1cnc2cnn(CC3CCC(F)(F)CC3)c2c1` [Compound P-2079, 4-[1-[(4,4-difluorocyclohexyl)methyl]pyrazolo[4,3-b]pyridin-6-yl]-3,5-dimethyl-isoxazole], the 50% inhibitory concentration (IC50) in assay [1] was at most 1 µM; in assay [2] it was at most 1 µM; in assay [3], below 10 µM.

On to `Cc1noc(C)c1-c1cnc2c(I)nn(CC3CCC(F)(F)CC3)c2c1` [Compound P-2080, 4-[1-[(4,4-difluorocyclohexyl)methyl]-3-iodo-pyrazolo[4,3-b]pyridin-6-yl]-3,5-dimethyl-isoxazole], for which the results for the IC50 in assay [1], in assay [2] and in assay [3] were at most 1 µM, at most 1 µM and below 10 µM, respectively.

Turning to `Cc1noc(C)c1-c1cnc2c(-c3cnn(C)c3)nn(CC3CCC(F)(F)CC3)c2c1` [Compound P-2081, 4-[1-[(4,4-difluorocyclohexyl)methyl]-3-(1-methylpyrazol-4-yl)pyrazolo[4,3-b]pyridin-6-yl]-3,5-dimethyl-isoxazole], the half-inhibitory concentration (IC50) in assay [1] is at most 1 µM; in assay [2] it was at most 1 µM; in assay [3] it was below 10 µM.

`Cc1noc(C)c1-c1cnc2c(-c3cnn(C(F)F)c3)nn(CC3CCC(F)(F)CC3)c2c1` [Compound P-2082, 4-[1-[(4,4-difluorocyclohexyl)methyl]-3-[1-(difluoromethyl)pyrazol-4-yl]pyrazolo[4,3-b]pyridin-6-yl]-3,5-dimethyl-isoxazole]: the IC50 was at most 1 µM in assay [1], at most 1 µM in assay [2] and below 10 µM in assay [3].

Turning to `Cc1noc(C)c1-c1cnc2c(-c3cnn(CC(F)(F)F)c3)nn(CC3CCC(F)(F)CC3)c2c1` [Compound P-2083, 4-[1-[(4,4-difluorocyclohexyl)methyl]-3-[1-(2,2,2-trifluoroethyl)pyrazol-4-yl]pyrazolo[4,3-b]pyridin-6-yl]-3,5-dimethyl-isoxazole], the IC50 is at most 1 µM in assay [1], at most 1 µM in assay [2] and below 10 µM in assay [3].

For the molecule `[2H]C([2H])(C1CCC(F)(F)CC1)n1nc(-c2cnn(C(F)F)c2)c2ncc(-c3c(C)noc3C)cc21` [Compound P-2084, 4-[1-[dideuterio-(4,4-difluorocyclohexyl)methyl]-3-[1-(difluoromethyl)pyrazol-4-yl]pyrazolo[4,3-b]pyridin-6-yl]-3,5-dimethyl-isoxazole], the IC50 is at most 1 µM in assay [1], at most 1 µM in assay [2] and below 10 µM in assay [3].

As for `[2H]C([2H])(C1CCC(F)(F)CC1)n1nc(-c2cnn(CC(F)(F)F)c2)c2ncc(-c3c(C)noc3C)cc21` [Compound P-2085, 4-[1-[dideuterio-(4,4-difluorocyclohexyl)methyl]-3-[1-(2,2,2-trifluoroethyl)pyrazol-4-yl]pyrazolo[4,3-b]pyridin-6-yl]-3,5-dimethyl-isoxazole], the IC50 is at most 1 µM in assay [1], at most 1 µM in assay [2] and below 10 µM in assay [3].

With `Cc1noc(C)c1-c1cnc2c(-c3cnn(C)c3)nn(CC3CC(F)(F)C3)c2c1` [Compound P-2086, 4-[1-[(3,3-difluorocyclobutyl)methyl]-3-(1-methylpyrazol-4-yl)pyrazolo[4,3-b]pyridin-6-yl]-3,5-dimethyl-isoxazole], the concentration for half-maximal inhibition (IC50) in assay [1] was at most 1 µM; in assay [2], at most 1 µM; in assay [3], below 10 µM.

In the case of `Cc1noc(C)c1-c1cnc2c(-c3cnn(CC(F)(F)F)c3)nn(CC3CC(F)(F)C3)c2c1` [Compound P-2087, 4-[1-[(3,3-difluorocyclobutyl)methyl]-3-[1-(2,2,2-trifluoroethyl)pyrazol-4-yl]pyrazolo[4,3-b]pyridin-6-yl]-3,5-dimethyl-isoxazole], the 50% inhibitory concentration (IC50) is at most 1 µM in assay [1], at most 1 µM in assay [2] and below 10 µM in assay [3].

Regarding `Cc1noc(C)c1-c1cnc2c(-c3cnn(C(F)F)c3)nn(CC3(F)CCCCC3)c2c1` [Compound P-2088, 4-[3-[1-(difluoromethyl)pyrazol-4-yl]-1-[(1-fluorocyclohexyl)methyl]pyrazolo[4,3-b]pyridin-6-yl]-3,5-dimethyl-isoxazole], the IC50 is at most 1 µM in assay [1], at most 1 µM in assay [2] and below 10 µM in assay [3].
